Tests used:
[1] = target: T1, Microtubule-associated protein tau (Homo sapiens, UniProt P10636); assay: Inhibition of tau protein aggregation (unknown origin) at 5:1 compound to protein concentration by Western blot analysis
[2] = target: T1, Microtubule-associated protein tau; assay: Inhibition of human recombinant brain tau protein (412 amino acid residues) filament assembly expressed in Escherichia coli BL21(DE3) by electron microscopic analysis in presence of heparin
[3] = target: T1, Microtubule-associated protein tau; assay: Inhibition of tau protein aggregation (unknown origin)
[4] = Oral bioavailability in diabetic neuropathy patient at 150 mg/day; type: ADME, organism-based; conditions: human, in vivo
[5] = Inhibition of tau K18 aggregation in mouse N2A cells; type: cell-based
Homo sapiens [6] = species on record: Homo sapiens; assay: Induction of tau K19 (unknown origin) disaggregation assessed as decrease in paired helical filament formation measured disassembly-inducing half maxima after 10 days by thioflavin S fluorescence assay in presence of heparin
[7] = Inhibition of tau K19 (unknown origin) aggregation assessed as inhibition of paired helical filament formation after 10 days by thioflavin S fluorescence assay in presence of heparin; parameters: species or system Homo sapiens
N2a [8] = assay: Inhibition of tau K18 deltaK280 mutant aggregation in mouse N2A cells at 10 uM measured over 5 days by thioflavin S fluorescence assay relative to control; type: cell-based
[9] = Inhibition of tau K19 protein (unknown origin) aggregation by thioflavin S fluorescence assay; parameters: species or system Homo sapiens
Homo sapiens [10] = species on record: Homo sapiens; assay: Induction of tau K19 (unknown origin) disaggregation assessed as decrease in paired helical filament formation measured disassembly-inducing half maxima by thioflavin S fluorescence assay
N2a [11] = assay: Cytotoxicity against mouse N2A cells at 10 uM after 24 hrs by LDH assay relative to control; type: cell-based
[12] = target: T1, Microtubule-associated protein tau; assay: Induction of tau protein (unknown origin) disaggregation assessed as disassembly-inducing half maxima
[13] = Inhibition of […] human tau K18 aggregation
[14] = target: Amyloid-beta precursor protein (Homo sapiens, UniProt P05067); assay: Inhibition of amyloid beta (1 to 40) (unknown origin) fibril formation after 18 hrs by DELFIA
[15] = Inhibition of tau K19 aggregation (unknown origin); parameters: species or system Homo sapiens
[16] = Binding affinity to tau K19 (unknown origin) assessed as dissociation constant by STD-NMR analysis; parameters: species or system Homo sapiens
Homo sapiens [17] = species on record: Homo sapiens; assay: Induction of tau K19 (unknown origin) disaggregation assessed as disassembly-inducing half maxima
[18] = Tmax in amyotrophic lateral sclerosis patient; conditions: human, in vivo
[19] = Terminal half life in rat at 100 mg, iv; type: ADME, organism-based; conditions: in vivo, read-out: beta t1/2 (converted)
[20] = Inhibition of K18 P301L mutant (unknown origin) fibril formation after 1 hr by thioflavin T fluorescence assay; parameters: species or system Homo sapiens
Homo sapiens [21] = species on record: Homo sapiens; assay: Selectivity ratio of IC50 for full length human tau40 aggregation to IC50 for tau K19 aggregation (unknown origin)
[22] = Inhibition of full length human tau40 aggregation

T1 sequence (P10636 whole entry): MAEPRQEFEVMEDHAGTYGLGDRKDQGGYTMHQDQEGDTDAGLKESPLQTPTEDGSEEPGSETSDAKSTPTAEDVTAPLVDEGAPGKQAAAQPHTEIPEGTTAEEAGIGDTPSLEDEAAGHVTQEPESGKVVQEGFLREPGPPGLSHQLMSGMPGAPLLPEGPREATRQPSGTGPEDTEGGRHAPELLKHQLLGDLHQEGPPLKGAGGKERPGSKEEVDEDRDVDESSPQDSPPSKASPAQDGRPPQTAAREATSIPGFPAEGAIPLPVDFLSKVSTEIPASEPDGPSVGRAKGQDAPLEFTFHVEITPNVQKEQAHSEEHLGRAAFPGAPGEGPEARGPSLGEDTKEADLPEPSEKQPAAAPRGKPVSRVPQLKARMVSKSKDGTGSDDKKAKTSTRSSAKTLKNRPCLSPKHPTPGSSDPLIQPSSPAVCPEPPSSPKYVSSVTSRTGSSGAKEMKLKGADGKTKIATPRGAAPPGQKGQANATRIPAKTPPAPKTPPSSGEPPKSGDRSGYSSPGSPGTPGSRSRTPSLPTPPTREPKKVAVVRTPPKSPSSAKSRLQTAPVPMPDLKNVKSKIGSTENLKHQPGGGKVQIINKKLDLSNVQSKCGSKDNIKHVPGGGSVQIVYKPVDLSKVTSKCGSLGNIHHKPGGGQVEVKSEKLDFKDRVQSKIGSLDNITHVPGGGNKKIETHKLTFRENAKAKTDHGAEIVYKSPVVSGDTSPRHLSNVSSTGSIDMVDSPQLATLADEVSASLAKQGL
Sequence of Amyloid-beta precursor protein (P05067 whole entry): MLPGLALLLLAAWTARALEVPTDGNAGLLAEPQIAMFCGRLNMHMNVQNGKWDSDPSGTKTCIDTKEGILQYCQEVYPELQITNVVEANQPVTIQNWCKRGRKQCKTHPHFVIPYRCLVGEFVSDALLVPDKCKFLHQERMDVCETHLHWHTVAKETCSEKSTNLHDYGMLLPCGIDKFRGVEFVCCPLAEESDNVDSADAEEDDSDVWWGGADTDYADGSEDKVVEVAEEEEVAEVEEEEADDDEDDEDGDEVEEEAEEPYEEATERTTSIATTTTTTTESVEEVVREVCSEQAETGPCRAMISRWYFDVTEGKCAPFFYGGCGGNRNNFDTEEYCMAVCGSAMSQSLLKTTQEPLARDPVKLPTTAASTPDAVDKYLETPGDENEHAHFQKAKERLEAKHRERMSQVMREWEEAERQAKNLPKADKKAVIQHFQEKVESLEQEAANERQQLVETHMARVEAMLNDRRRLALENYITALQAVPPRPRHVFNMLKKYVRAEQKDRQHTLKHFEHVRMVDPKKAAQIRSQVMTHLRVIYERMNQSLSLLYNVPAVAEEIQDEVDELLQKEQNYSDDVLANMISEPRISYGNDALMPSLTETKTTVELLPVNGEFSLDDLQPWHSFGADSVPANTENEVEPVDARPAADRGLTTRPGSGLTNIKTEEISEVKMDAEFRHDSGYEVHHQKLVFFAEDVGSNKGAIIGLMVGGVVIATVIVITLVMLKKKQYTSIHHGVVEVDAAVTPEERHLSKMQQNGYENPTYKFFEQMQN

CN(C)c1ccc2nc3ccc(N)cc3[s+]c2c1
IC50 [1]: 0.069 µM | IC50 [2]: 2.6 µM

C1=C2\Sc3ccccc3N2CCCCC[n+]2c(sc3ccccc32)/C=C/C=C2\Sc3ccccc3N2CCCCC[n+]2c(sc3ccccc32)/C=C/1
IC50 [3]: 0.08 µM

CC(/C=C1\SC(=S)N(CC(=O)O)C1=O)=C\c1ccccc1
bioavailability [4]: 100%

O=C(O)COc1ccc(Nc2c([N+](=O)[O-])cc([N+](=O)[O-])c3cccnc23)cc1
IC50 [5]: < 15 µM

O=C1c2ccc(O)c(O)c2C(=O)c2c(O)ccc(O)c21 [QUINALIZARIN]
Activity (Homo sapiens [6]): 2.2 µM | IC50 [7]: 1.1 µM

Cc1nc(Nc2ccccc2C(=O)O)nc(Nc2ccccc2C(=O)O)c1[N+](=O)[O-]
inhibition (N2a [8]): 70% | IC50 [5]: < 10 µM

O=C(O)CCN1C(=O)/C(=C/c2ccc(-c3cccc(Cl)c3)s2)SC1=S
IC50 [9]: 0.97 µM | Activity (Homo sapiens [10]): 0.77 µM

O=C1/C(=C/c2ccc(-c3cccc(Cl)c3)o2)SC(=S)N1Cc1nc2ccccc2[nH]1
IC50 [9]: 0.67 µM | Activity (Homo sapiens [10]): 0.94 µM | Activity (N2a [11]): 2%

Cc1ccc(C(=O)N/N=C/c2ccc(O)c(O)c2O)cc1
IC50 [3]: 0.97 µM | Activity [12]: 1.1 µM

CCC(/C=C1\Sc2ccc(OC)cc2N1CCO)=C\c1sc2ccc(OC)cc2[n+]1CCO
IC50 [13]: 0.3 µM | IC50 [3]: 0.38 µM

Nc1ccc2nc3ccc(N)cc3[s+]c2c1
IC50 [1]: 0.069 µM

COc1cccc2c1C(=O)c1c(O)c3c(c(O)c1C2=O)C[C@@](O)(C(=O)CO)C[C@@H]3O[C@H]1C[C@H](N)[C@H](O)[C@H](C)O1
Activity (Homo sapiens [6]): 2.2 µM

COc1ccccc1OCCNCC(O)COc1cccc2[nH]c3ccccc3c12 (configuration not stated) [CARVEDILOL]
IC50 [14]: 30 µM

O=C(NNc1nc(-c2ccc([N+](=O)[O-])cc2)cs1)c1ccc2[nH]cnc2c1
IC50 [15]: 1.6 µM | Kd [16]: 62 µM | Activity (Homo sapiens [17]): 0.7 µM

Nc1nc2ccc(OC(F)(F)F)cc2s1 [RILUZOLE]
Tmax [18]: 2 h

CN(C)c1ccc2nc3ccc(N(C)C)cc3[s+]c2c1.[Cl-] [METHYLENE BLUE ANHYDROUS]
half-life [19]: 5 h

Cc1cc(O)c2c(c1)C(=O)c1cc(O)cc(O)c1C2=O [EMODIN]
Activity (Homo sapiens [6]): 2.2 µM | IC50 [7]: 1.1 µM

O=C(O)CCN1C(=O)/C(=C/c2ccc(-c3cccc(Cl)c3)o2)SC1=S
IC50 [9]: 0.47 µM | Activity (Homo sapiens [10]): 0.3 µM

Oc1cc(O)c2c(c1)O[C@H](c1ccc(O)c(O)c1)[C@H](O)C2 [(-)-EPICATECHIN]
IC50 [2]: ≥ 200 µM

CCOC(=O)c1nn(-c2ccc(OC)cc2)c(=O)c2c(N)scc12
IC50 [20]: 5.1 µM

O=C(c1ccccc1)c1ccc(O)c(O)c1O
Activity (Homo sapiens [6]): 2.2 µM | IC50 [7]: 1.1 µM

O=C(O[C@@H]1Cc2c(O)cc(O)cc2O[C@@H]1c1cc(O)c(O)c(O)c1)c1cc(O)c(O)c(O)c1 [EPIGALOCATECHIN GALLATE]
Ratio IC50 (Homo sapiens [21]): > 50 | IC50 [15]: 3.9 µM | IC50 [22]: > 200 µM | IC50 [2]: 1.8 µM

CCOC(=O)c1nn(-c2ccccc2)c(=O)c2c(N)scc12
IC50 [20]: 6.3 µM

COc1cccc2c1C(=O)c1c(O)c3c(c(O)c1C2=O)C[C@@](O)(C(C)=O)C[C@@H]3O[C@H]1C[C@H](N)[C@H](O)[C@H](C)O1 [DAUNORUBICIN]
Activity (Homo sapiens [6]): 2.2 µM | IC50 [7]: 1.1 µM

Cc1cc2nc3ccc(N(C)C)cc3[s+]c2cc1N [TOLONIUM CHLORIDE]
IC50 [1]: 0.069 µM
